In the supplement of paper PMC11208160:

Assay: recombinant UMI read abundance after kanamycin selection (control-corrected) (log10(CPM+1)); higher = more efficient recombination; extreme values may be limits of the assay; sequences stand for … in AGTGCAGAGAAAATCGGCCAGTTTTCTCTGCCTGCAGTCCGCATGCCGTGGGACCCCTTGGGTTCTAACCTGTTGCCTAGATTTATGCAGCGGACTGCCTTTCTCCCAAAGTGATAAACCGG…AGGTTGGTTTCACT; site = the 11-nt donor
Experimental: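 Pooled E. coli donor-specificity screen for the IS621 bridge recombinase. Each library member carries a reprogrammed 11-nt donor and a full-length LE bridge RNA expressed in cis from the natural promoter, with a paired donor-binding loop (8-nt LDG + 4-nt RDG) and a target-binding loop fixed to T5. It is co-electroporated with a T5 target plasmid; recombinase is induced with 0.07 mM IPTG and recombinants are selected on kanamycin. UMIs are counted as CPM, averaged over two biological replicates and corrected by the unselected control. Molecule = full bridge RNA written as DNA, built from the T5 scaffold: LDG = donor specificity nt 1-8, RDG = reverse complement of nt 8-11.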
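Also: IS621 bridge recombinase in Escherichia coli cells against a fixed T5 target plasmid.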

First: ACTAGTGCATGGACCGGTTTTCCCGGTAATCCGTATTTGTT (site ACTAGTGCTAC)
Second: ACTAGTGCATGGACCGGTTTTCCCGGTAATCCGTATTTGTT (site ACTAGTGCTAG)
The “recombinant UMI read abundance (log10)” value of the first is lower: 0.00478 for the first, 1.16 for the second.

Compared with “ACTAGTGCATGGACCGGTTTTCCCGGTAATCCGTATTTGTT (site ACTAGTGCTAT)”, “ACTATAACATGGACCGGTTTTCCCGGTAATCCGTATTTGAG (site ACTAAAACTCT)” is lower in “recombinant UMI read abundance (log10)” value: 0.242 for the first, 0.00383 for the second.

“ACTATAACATGGACCGGTTTTCCCGGTAATCCGTATTTGAG (site ACTACAACTCT)” and “ACTATAACATGGACCGGTTTTCCCGGTAATCCGTATTTGAG (site ACTAGAACTCT)” are within 0.2 log units of each other in “recombinant UMI read abundance (log10)” value: 0.348 for the first, 0.395 for the second.

Compared with “ACTATAACATGGACCGGTTTTCCCGGTAATCCGTATTTGAG (site ACTATAACTCT)”, “ACTATACCATGGACCGGTTTTCCCGGTAATCCGTATTTGTA (site ACTATACCTTA)” is lower in “recombinant UMI read abundance (log10)” value: 1.72 for the first, 0.0158 for the second.

“ACTATTGCATGGACCGGTTTTCCCGGTAATCCGTATTTGGT (site ACTAATGCTAC)” and “ACTATTGCATGGACCGGTTTTCCCGGTAATCCGTATTTGGT (site ACTACTGCTAC)” are within 0.2 log units of each other in “recombinant UMI read abundance (log10)” value: 0.108 for the first, 0.0131 for the second.

Going from “ACTATTGCATGGACCGGTTTTCCCGGTAATCCGTATTTGGT (site ACTAGTGCTAC)” to “ACTATTGCATGGACCGGTTTTCCCGGTAATCCGTATTTGGT (site ACTATTGCTAC)”, the “recombinant UMI read abundance (log10)” value rises from 0.023 to 1.91.

Compared with “ACTCAAGCATGGACCGGTTTTCCCGGTAATCCGTATTTGCA (site ACTCAAGCTTG)”, “ACTCAATCATGGACCGGTTTTCCCGGTAATCCGTATTTGAG (site ACTCAATCTCT)” is lower in “recombinant UMI read abundance (log10)” value: 2.26 for the first, 1.69 for the second.

Going from “ACTCCAACATGGACCGGTTTTCCCGGTAATCCGTATTTGTC (site ACTCCAACTGA)” to “ACTCCAGCATGGACCGGTTTTCCCGGTAATCCGTATTTGAT (site ACTCCAGCTAT)”, the “recombinant UMI read abundance (log10)” value rises from 1.34 to 2.13.

Going from “ACTCGCCCATGGACCGGTTTTCCCGGTAATCCGTATTTGTT (site ACTCGCCCTAA)” to “ACTCGTGCATGGACCGGTTTTCCCGGTAATCCGTATTTGGT (site ACTAGTGCTAC)”, the “recombinant UMI read abundance (log10)” value falls from 1.08 to 0.43.

Going from “ACTCGTGCATGGACCGGTTTTCCCGGTAATCCGTATTTGGT (site ACTCGTGCTAC)” to “ACTCGTGCATGGACCGGTTTTCCCGGTAATCCGTATTTGGT (site ACTGGTGCTAC)”, the “recombinant UMI read abundance (log10)” value falls from 1.07 to 0.222.

First: ACTCGTGCATGGACCGGTTTTCCCGGTAATCCGTATTTGGT (site ACTTGTGCTAC)
Second: ACTCTCCCATGGACCGGTTTTCCCGGTAATCCGTATTTGAT (site ACTCTCCCTAT)
The “recombinant UMI read abundance (log10)” value of the first is higher: 0.839 for the first, 0.628 for the second.

Compared with “ACTCTCTCATGGACCGGTTTTCCCGGTAATCCGTATTTGCA (site ACTCTCTCTTG)”, “ACTGATGCATGGACCGGTTTTCCCGGTAATCCGTATTTGGC (site ACTGATGCTGC)” is lower in “recombinant UMI read abundance (log10)” value: 3.19 for the first, 1.81 for the second.

Going from “ACTGCTACATGGACCGGTTTTCCCGGTAATCCGTATTTGAA (site ACTGCTACTTT)” to “ACTGGTGCATGGACCGGTTTTCCCGGTAATCCGTATTTGGT (site ACTAGTGCTAC)”, the “recombinant UMI read abundance (log10)” value rises from 0.749 to 1.

Compared with “ACTGGTGCATGGACCGGTTTTCCCGGTAATCCGTATTTGGT (site ACTCGTGCTAC)”, “ACTGGTGCATGGACCGGTTTTCCCGGTAATCCGTATTTGGT (site ACTGGTGCTAC)” is higher in “recombinant UMI read abundance (log10)” value: 0.414 for the first, 1.69 for the second.

Compared with “ACTGGTGCATGGACCGGTTTTCCCGGTAATCCGTATTTGGT (site ACTTGTGCTAC)”, “ACTGTAACATGGACCGGTTTTCCCGGTAATCCGTATTTGCT (site AATGTAACTAG)” is higher in “recombinant UMI read abundance (log10)” value: 0.401 for the first, 0.987 for the second.

Going from “ACTGTAACATGGACCGGTTTTCCCGGTAATCCGTATTTGCT (site ACTGTAACTAG)” to “ACTGTAACATGGACCGGTTTTCCCGGTAATCCGTATTTGCT (site AGTGTAACTAG)”, the “recombinant UMI read abundance (log10)” value falls from 2.23 to 1.12.
